Target: Dual specificity tyrosine-phosphorylation-regulated kinase 4 (Homo sapiens) (UniProt Q9NR20)
Assay: inhibition of human DYRK4 phosphotransferase activity – biochemical, Z'-LYTE, FRET, protease-coupled, direct format, dose response (AID 1671209)
Settings: recombinant DYRK4

Sequence of Dual specificity tyrosine-phosphorylation-regulated kinase 4 (Homo sapiens) (Q9NR20 whole entry, looked up): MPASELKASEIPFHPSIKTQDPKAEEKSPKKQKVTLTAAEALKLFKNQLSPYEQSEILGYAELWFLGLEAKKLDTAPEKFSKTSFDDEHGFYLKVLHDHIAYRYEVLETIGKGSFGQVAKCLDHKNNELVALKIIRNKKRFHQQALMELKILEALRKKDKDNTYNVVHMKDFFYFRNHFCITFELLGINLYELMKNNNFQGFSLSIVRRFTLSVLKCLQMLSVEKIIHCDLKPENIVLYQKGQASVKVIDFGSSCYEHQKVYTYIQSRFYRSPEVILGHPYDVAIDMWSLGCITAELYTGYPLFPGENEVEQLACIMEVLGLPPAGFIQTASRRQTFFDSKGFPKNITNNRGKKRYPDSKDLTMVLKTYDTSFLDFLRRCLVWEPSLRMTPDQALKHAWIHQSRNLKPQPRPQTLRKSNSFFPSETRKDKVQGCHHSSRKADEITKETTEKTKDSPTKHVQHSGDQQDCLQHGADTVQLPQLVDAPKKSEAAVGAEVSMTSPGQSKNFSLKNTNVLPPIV

IC50: 12.9 µM
Structure (SMILES): Brc1c(Br)c(Br)c2n[nH]nc2c1Br

Reference: PubChem BioAssay AID1671209
